IC50 data for 31 compounds are collected here from patent US20260209214A1, “LSD1 MODULATORS” (RECURSION PHARMACEUTICALS, INC., priority 2022, published 2026).

Counter-ions that a name gives are not always drawn. A value given as a limit tells only on which side of the number the result lay.

The IC50 is the concentration needed to halve the response being measured.

The test has as its target Recombinant human LSD1 (Homo sapiens, UniProt O60341). Briefly: LSD1 inhibition assay (HTRF LSD1 Histone H3K4 mono-demethylation assay, me1->me0). The format is biochemical. Conditions: 20 nM recombinant human LSD1, 95 nM H3K4(me1) biotinylated peptide, 15 min preincubation, 60 min at 25° C., read-out: LSD1 inhibition IC50 (nM range). In short, it runs like this: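 Recombinant human LSD1 (20 nM) pre-incubated 15 min with 10 semi-log compound doses, then 95 nM biotinylated H3K4me1 peptide for 60 min at 25 °C in pH 8.5 Tris/NaCl buffer with 10 μM FAD, 1 mM DTT. HTRF me0-antibody read after 90 min; IC50 from 4-parameter fit.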

As for `COc1cnc(-c2ccc(CN3[C@@H]4CC[C@H]3[C@@H](N)C4)cc2-c2ccc(C#N)c(F)c2)cn1` (racemic) [Example 317, 5'-{[(1S,2S,4R)-2-amino-7-azabicyclo[2.2.1]heptan-7-yl]methyl}-3-fluoro-2'-(5-methoxypyrazin-2-yl)-[1,1'-biphenyl]-4-carbonitrile], the IC50 is 10 to 25 nM.

For the compound `N#Cc1ccc(-c2cccc(CN3C[C@]4(N)CC[C@H]3C4)c2-c2ocnc2F)cc1F` [Example 174, 3'-{[(1S,4S)-4-amino-2-azabicyclo[2.2.1]heptan-2-yl]methyl}-3-fluoro-2'-(4-fluoro-1,3-oxazol-5-yl)-[1,1'-biphenyl]-4-carbonitrile], the IC50 was 10 to 25 nM.

For `N#Cc1ccc(-c2cc(C3CNCCO3)ccc2N2CCCCC2)cc1F` (stereo not shown) [Example 168, 3-fluoro-5′-(morpholin-2-yl)-2′-(piperidin-1-yl)-[1,1′-biphenyl]-4-carbonitrile], the IC50 lay within 100 to 1000 nM.

On to `N#Cc1ccc(-c2cccc(CC3CNCCO3)c2-c2ccno2)cc1F` (stereo not shown) [Example 16, 3-fluoro-3′-[(morpholin-2-yl)methyl]-2′-(1,2-oxazol-5-yl)-[1,1′-biphenyl]-4-carbonitrile], for which the IC50 lay in the range of 10 to 25 nM.

`CC1(O)CCN(c2ccc(CC3CNCCO3)c(F)c2-c2ccc(C#N)c(F)c2)CC1` (stereo not shown) [Example 155, 2′,3-difluoro-6′-(4-hydroxy-4-methylpiperidin-1-yl)-3′-[(morpholin-2-yl)methyl]-[1,1′-biphenyl]-4-carbonitrile]: the IC50 lay in the range of 100 to 1000 nM.

With `N#Cc1ccc(-c2cc(CN3[C@@H]4CC[C@H]3[C@@H](N)C4)ccc2N2CC3(CC3)C2)cc1F` (racemic) [Example 251, 5'-{[(1S,2S,4R)-2-amino-7-azabicyclo[2.2.1]heptan-7-yl]methyl}-2'-{5-azaspiro[2.3]hexan-5-yl}-3-fluoro-[1,1'-biphenyl]-4-carbonitrile], the IC50 was 25 to 100 nM.

`Cc1sncc1-c1c(CC2CNCCO2)cccc1-c1ccc(C#N)c(F)c1` [Example 113, (2R,3R)-2,3-dihydroxybutanedioic acid; 2-fluoro-4-[2-(5-methylisothiazol-4-yl)-3-(morpholin-2-ylmethyl)phenyl]benzonitrile]: the IC50 lay within 100 to 1000 nM.

`Cc1cc(CN2C[C@@H]3C[C@H]2CN3)c(Cl)c(-c2ccc(C#N)c(F)c2)c1` [Example 299, 2′-chloro-3'-{[(1S,4S)-2,5-diazabicyclo[2.2.1]heptan-2-yl]methyl}-3-fluoro-5'-methyl-[1,1'-biphenyl]-4-carbonitrile]: the IC50 lay in the range of 25 to 100 nM.

With `COC1(C)CCN(c2ccc(CN3[C@@H]4CC[C@H]3[C@@H](N)C4)cc2-c2ccc(C#N)c(F)c2)CC1` (racemic) [Example 232, 5'-{[(1S,2S,4R)-2-amino-7-azabicyclo[2.2.1]heptan-7-yl]methyl}-3-fluoro-2'-(4-methoxy-4-methylpiperidin-1-yl)-[1,1'-biphenyl]-4-carbonitrile], the IC50 is 10 to 25 nM.

Regarding `CC1(C)CN(c2ccc(CN3[C@@H]4CC[C@H]3[C@@H](N)C4)cc2-c2ccc(C#N)c(F)c2)C1` (racemic) [Example 206, 5'-{[(1S,2S,4R)-2-amino-7-azabicyclo[2.2.1]heptan-7-yl]methyl}-2'-(3,3-dimethylazetidin-1-yl)-3-fluoro-[1,1'-biphenyl]-4-carbonitrile], the IC50 is 10 to 25 nM.

Turning to `N#Cc1ccc(-c2cccc(CN3C[C@]4(N)CC[C@H]3C4)c2-c2ccns2)cc1F` [Example 171, 4-[3-[[(1S,4S)-4-amino-2-azabicyclo[2.2.1]heptan-2-yl]methyl]-2-isothiazol-5-yl-phenyl]-2-fluoro-benzonitrile hydrochloride], the IC50 was in the range of 10 to 25 nM.

Regarding `COCc1c(CN2[C@@H]3CC[C@H]2[C@@H](N)C3)cccc1-c1ccc(C#N)c(F)c1` (racemic) [Example 320, 3'-{[(1S,2S,4R)-2-amino-7-azabicyclo[2.2.1]heptan-7-yl]methyl}-3-fluoro-2'-(methoxymethyl)-[1,1'-biphenyl]-4-carbonitrile], the IC50 lay in the range of 100 to 1000 nM.

Turning to `N#Cc1ccc(-c2cc(CC3CNCCCO3)ccc2N2CCC2)cc1F` (stereo not shown) [Example 102, 2′-(azetidin-1-yl)-3-fluoro-5′-[(1,4-oxazepan-2-yl)methyl]-[1,1′-biphenyl]-4-carbonitrile], the IC50 fell in the range of 25 to 100 nM.

For `N#Cc1ccc(-c2cccc(N3CCC(N)CC3)c2-c2ccns2)cc1F` [Example 110, 3'-(4-aminopiperidin-1-yl)-3-fluoro-2'-(1,2-thiazol-5-yl)-[1,1'-biphenyl]-4-carbonitrile], the IC50 lay within 10 to 25 nM.

Regarding `N#Cc1ccc(-c2cccc(CN3CC[C@@H]4NCC[C@@H]43)c2C2CC2)cc1F` [Example 273, 3'-{[(3aS,6aS)-octahydropyrrolo[3,2-b]pyrrol-1-yl]methyl}-2'-cyclopropyl-3-fluoro-[1,1'-biphenyl]-4-carbonitrile], the IC50 is 25 to 100 nM.

`N#Cc1ccc(-c2cccc(CN3[C@@H]4CC[C@H]3[C@@H](N)C4)c2N2CCC(F)CC2)cc1F` (racemic) [Example 241, 3'-{[(1S,2S,4R)-2-amino-7-azabicyclo[2.2.1]heptan-7-yl]methyl}-3-fluoro-2'-(4-fluoropiperidin-1-yl)-[1,1'-biphenyl]-4-carbonitrile]: the IC50 was 100 to 1000 nM.

As to `N#Cc1ccc(-c2cc(CN3C[C@]4(N)CC[C@H]3C4)ccc2N2CCC3(CCCO3)CC2)cc1F` [Example 217, 5'-{[(1S,4S)-4-amino-2-azabicyclo[2.2.1]heptan-2-yl]methyl}-3-fluoro-2'-{1-oxa-8-azaspiro[4.5]decan-8-yl}-[1,1'-biphenyl]-4-carbonitrile], the IC50 is 10 to 25 nM.

Regarding `CN[C@@H]1C[C@@H]2CC[C@H]1N2Cc1cccc(-c2ccc(C#N)c(F)c2)c1C1CC1` (single isomer, unassigned) [Example 178], the IC50 is 10 to 25 nM.

In the case of `N#Cc1ccc(-c2cccc(CN3C[C@H](N)C[C@H](F)C3)c2Cl)cc1F` [Example 285, 3'-{[(3R,5S)-3-amino-5-fluoropiperidin-1-yl]methyl}-2'-chloro-3-fluoro-[1,1'-biphenyl]-4-carbonitrile], the IC50 was 100 to 1000 nM.

For `N#Cc1ccc(-c2cccc(CN3CC4(CCCNC4)C3)c2-c2cnco2)cc1F` [Example 333, 3'-({2,6-diazaspiro[3.5]nonan-2-yl}methyl)-3-fluoro-2'-(1,3-oxazol-5-yl)-[1,1'-biphenyl]-4-carbonitrile], the IC50 is 10 to 25 nM.

`N#Cc1ccc(-c2cccc(CN3[C@@H]4CC[C@H]3[C@@H](N)C4)c2C2CC2)cc1F` (single isomer, unassigned) [Example 261]: the IC50 lay within 100 to 1000 nM.

Take `N#Cc1ccc(-c2cccc(CN3C[C@@H]4CNC[C@H]4C3)c2-c2cncs2)cc1F` [Example 324, 3'-{[(3aS,6aS)-octahydropyrrolo[3,4-c]pyrrol-2-yl]methyl}-3-fluoro-2'-(1,3-thiazol-5-yl)-[1,1'-biphenyl]-4-carbonitrile]: the IC50 is 10 to 25 nM.

With `N#Cc1ccc(-c2cccc(CN3CCC4CC3CN4)c2C2CC2)cc1F` (stereo not shown) [Example 199, 2'-cyclopropyl-3'-({2,6-diazabicyclo[3.2.1]octan-2-yl}methyl)-3-fluoro-[1,1'-biphenyl]-4-carbonitrile], the IC50 lay in the range of 10 to 25 nM.

On to `N#Cc1ccc(-c2cc(CN3[C@@H]4CC[C@H]3[C@@H](N)C4)ccc2OC[C@@H]2CCCOC2)cc1F` (racemic) [Example 231, 5'-{[(1S,2S,4R)-2-amino-7-azabicyclo[2.2.1]heptan-7-yl]methyl}-3-fluoro-2'-{[(3R)-oxan-3-yl]methoxy}-[1,1'-biphenyl]-4-carbonitrile], for which the IC50 was 10 to 25 nM.

As for `N#Cc1ccc(-c2cccc(CN3[C@@H]4CC[C@H]3[C@H](N)C4)c2C2CC2)cc1F` (racemic) [Example 319, 3'-{[(1S,2R,4R)-2-amino-7-azabicyclo[2.2.1]heptan-7-yl]methyl}-2'-cyclopropyl-3-fluoro-[1,1'-biphenyl]-4-carbonitrile], the IC50 is 25 to 100 nM.

As to `CC(C)(C)N1CCN(c2ccc(CC3CNCCO3)cc2-c2ccc(C#N)c(F)c2)CC1` (stereo not shown) [Example 149, 2′-(4-tert-butylpiperazin-1-yl)-3-fluoro-5′-[(morpholin-2-yl)methyl]-[1,1′-biphenyl]-4-carbonitrile], the IC50 was in the range of 100 to 1000 nM.

For `N#Cc1ccc(-c2cccc(CN3C[C@]4(N)CC[C@H]3C4)c2Cl)cc1F` [Example 196, 3'-{[(1S,4S)-4-amino-2-azabicyclo[2.2.1]heptan-2-yl]methyl}-2'-chloro-3-fluoro-[1,1'-biphenyl]-4-carbonitrile], the IC50 is 25 to 100 nM.

With `CC1(C)CN(Cc2cccc(-c3ccc(C#N)c(F)c3)c2C2CC2)CC1N` (stereo not shown) [Example 278, 3'-[(4-amino-3,3-dimethylpyrrolidin-1-yl)methyl]-2'-cyclopropyl-3-fluoro-[1,1'-biphenyl]-4-carbonitrile], the IC50 fell in the range of 100 to 1000 nM.

In the case of `N#Cc1ccc(-c2cccc(OC3CC4CNC3C4)c2-c2ccns2)cc1F` (stereo not shown) [Example 112, 3′-{2-azabicyclo[2.2.1]heptan-6-yloxy}-3-fluoro-2′-(1,2-thiazol-5-yl)-[1,1′-biphenyl]-4-carbonitrile], the IC50 is 10 to 25 nM.

As for `N#Cc1ccc(-c2cccc(CC3CCCNC3)c2-c2ccns2)cc1F` (stereo not shown) [Example 71, 3-fluoro-3′-[(piperidin-3-yl)methyl]-2′-(1,2-thiazol-5-yl)-[1,1′-biphenyl]-4-carbonitrile], the IC50 was less than 10 nM.

For `N#Cc1ccc(-c2cc(CC3CNCCO3)ccc2C2CCCO2)cc1F` (stereo not shown) [Example 145, 3-fluoro-5′-[(morpholin-2-yl)methyl]-2′-(oxolan-2-yl)-[1,1′-biphenyl]-4-carbonitrile], the half-inhibitory concentration (IC50) was greater than 1000 nM.
